“Also recorded” adds a separate entry of the source. One block for each compound: values may come before it.
Assays:
carious dentin tissue [1] = assay: Staining of carious dentin of a pre molar tooth combined with high-speed dental drill (Example 6); details: 15-50 mM aqueous solution; Diamond/Fissure bur OB 301A FG; repeated several times
Protocol: Carious dentin tissue of a pre molar tooth stained with an aqueous solution of the hydrazine derivative Alexa 594 in a concentration of 15-50 mM was subjected to mechanical treatment by a dental drill until no staining could be visually detected. The dental drill was a high-speed dental drill Diamond/Fissure bur OB 301A FG from Plandent Forssbergs Dental, Sweden. […] The stained surface was subjected to drilling until no staining could be visually detected. A dentist examined the surface visually and with a tactile instrument and concluded that the surface was free of caries. […] Again, drilling of the stained surface took place until no staining could be observed. […] Drilling and staining as described above in this example was repeated several times. […] This is in contrast to the successful selective detection and removal of carious dentin tissue using a hydrazine derivative in combination with a chemical means for treatment of carious dentin tissue as described in Example 5.

[2] = tested on: carious dentin tissue in infected teeth; assay: Staining of caries-infected tooth slices, retention after NaCl and NaOH incubation (Example 2); details: for colouring of tooth slice after NaCl and NaOH treatment (Day 4): after 1 M NaCl and 0.5 M NaOH overnight incubations, visible light, UV or fluorescence microscopy; for mode of binding to carious tissue in infected teeth (conclusion): conclusion of Example 2
Protocol: Experiments were performed during 4 days. Whole caries infected tooth was added to an ortho acryl gel, which after hardening was used as a holder prior to […] of brand Zaw Micro Tone, German). Slices, having a thickness of 150 μm, were left over night in each colour to be tested (Day one). On the second day, the colours were washed out by rinsing the slices with MQ water and the teeth sections were photographed under either a microscope (6.7×; visible light), in UV (no microscope) or under a fluorescence microscope (100×). Thereafter, an aqueous salt solution (NaCl, 1 M) was added to the slices and incubated overnight. On the third day the slices were washed with MQ water and thereafter the same detection procedures were used as described above. Finally the tooth slices were exposed to an aqueous solution of NaOH (0.5 M) over night. The washing and detection path were then repeated as described previously (Day 4).

carious dentin tissue [3] = assay: Staining of carious dentin of a pre molar tooth combined with Carisolv excavation (Example 5)
Protocol: Carious dentin tissue of a pre molar tooth was treated with Carisolv® to obtain a cavity and subsequently stained with an aqueous solution of the hydrazine derivative Alexa 594. The concentration of the aqueous solution of the hydrazine derivative Alexa 594 was 15-50 mM. […] Carisolv® was added to the cavity and excavation took place with a hand instrument from Mediteam Dental AB to reach a carious free level. […] A dentist performed tactile control of this surface and confirmed that the surface was free of caries.
The slightly stained surface was subjected to treatment with Carisolv® followed by excavation with a hand instrument. […] It was therefore concluded that all carious dentin tissue of the tooth had been removed. It was concluded that a hydrazine derivative such as Alexa 594 can be used in combination with a chemical means for carious dentin tissue such as Carisolv® for selective detection and removal of carious dentin tissue.

[4] = tested on: smear layer on healthy dentin tissue; assay: Staining of drilled dentin of an extracted healthy tooth, smear layer detection (Examples 7 and 8)
Protocol: An extracted tooth in a healthy state with no previous dental restoration was subjected to drilling with the dental drill Cera Bur at a speed of approximately 1500 rpm. The dental drill Cera Bur was from the company Comet USA LLC and is described in EP 1 849 429. […] Therefore, the tooth was subjected to a high-speed dental drill resulting in a cavity exposing dentin tissue, i.e. a dentin tooth surface. The high speed dental drill was the high-speed dental drill Diamond/Fissure bur OB 301A FG from Plandent Forssbergs Dental, Sweden. […] The staining was visually detected using the instrument PoliLed SN06LP1121 operated at 460-470 nm, Faro.
The thus formed smear layer stained with Lucifer Yellow was subjected to drilling with the dental drill Cera Bur at a speed of approximately 1500 rpm after which rinsing with water took place. […] It was concluded that the Cera Bur drill removed the smear layer and the resulting dentin tissue was free of smear layer.
It was concluded that the dentin tooth surface was free of smear layer. […]
An extracted tooth in a healthy state with no previous dental restoration was subjected to a high-speed dental drill resulting in a cavity exposing dentin tissue, i.e. a dentin tooth surface. […] The staining was visually detected using the instrument PoliLed SN06LP1121 operated at 460-470 nm, Faro. […]

healthy dentin tissue [5] = assay: FTIR of healthy dentin tissue treated with hydrazine derivative (Example 3); parameters: species or system human; details: 13 mM aqueous solution overnight, FIGS. 3a and 3c
Excerpt: (§1) Extracted permanent human teeth with no previous dental restorations were selected due to their severe carious tissue status and analysed with FTIR within one week after extraction. The outermost part of the carious dental lesions was removed. The remaining dental carious tissue was divided into two layers; one outer layer with discoloured, soft and infected dental carious tissue and one inner layer that was excavated down to the observed uncoloured hard surface of the remaining healthy dentin controlled by tactile procedures.
(§2) Healthy dentin tissue and carious dentin tissue from the innermost layer were collected. This healthy dentin tissue sample and carious dentin tissue sample were then each divided into three samples.
(§3) The healthy dentin tissue sample (26 mg) was divided and treated as follows. […] Fluorescence of bounded hydrazine derivate Lucifer Yellow was checked by a UV lamp. […] The third sample, hereinafter denominated sample S3, (7 mg) and the last procedure was treated with NaBH4 (0.5 M in ethanol) and washed with concentrated ethanol to reduce aldehydes and ketones before the addition of an aqueous solution of the hydrazine derivate Lucifer Yellow (13 mM), repeated rinsing with purified water before dried and analysed.
(§4) Thus, in total 6 samples (three from the healthy dentin tissue and three from the carious dentin tissue) were analysed with FTIR within one week after extraction. […]

healthy dentin tissue [6] = assay: TOF-SIMS of healthy dentin tissue treated with hydrazine derivative (Example 4); details: TOF-SIMS positive spectra
carious dentin tissue [7] = assay: TOF-SIMS of carious dentin tissue treated with hydrazine derivative (Example 4)
Protocol: FTIR-ATR and TOF-SIMS analyses were performed on a sample group consisting of carious tissue inner most layers selected and estimated with an exactness of a working dentist. Samples were pooled from 4-6 teeth of inner layer of carious tissue (37 mg). The pooled sample was divided into two subgroups where one was exposed to the hydrazine derivate Lucifer Yellow and further analysed with TOF-SIMS and the other only analysed with FTIR-ATR. An aqueous solution of the hydrazine derivate Lucifer Yellow (1.8 mM) was added to the inner layer carious tissue (19 mg) and after 1 hour exposure washed with an aqueous solution of NaOH (0.5 M) and purified water before dried over vacuum. […] Each sample was attached to double side tape and analysed with a TOF-SIMS instrument (TOF-SIMS IV, CAMECA/IONTOF, GmbH, Germany). Positive secondary ion mass spectra were recorded from different areas of the sample at a size of 200×200 μm^2 and separated in a mass analyser and next compared with known mass spectra from the Ion Spec application (IonTof, GmbH, Germany, ver. 4.1) linked with the TOF-SIMS instrument. Negative secondary ion mass spectra were also recorded but gave no further information. […]
The upper spectrum was recorded for the sample of carious dentin tissue that had been milled but not subjected to treatment with hydrazine (i.e. the carious dentin tissue reference). […]

carious dentin tissue [8] = assay: FTIR of carious dentin tissue treated with hydrazine derivative (Example 3); parameters: species or system human
Excerpt: as §1, §2
as §3, with “analysed. […]” for “analysed.”
as §4

mode of binding to carious tissue in infected teeth (conclusion) [2]: binds in a reversible way
Compound: CC(=O)Nc1cc(S(=O)(=O)[O-])cc2cc(S(=O)(=O)[O-])c(/N=N/c3ccccc3)c(O)c12.[Na+].[Na+] [Acid red 1]
staining of tooth slice after incubation with 1 M NaCl ([2]; 150 μm slices left overnight in colour, MQ rinse, 1 M NaCl overnight): only little staining remained
colouring of tooth slice after NaCl and NaOH treatment (Day 4) [2]: no colouring
effect of rinsing on dye-labelled carious dentin tissue ([2]; rinsing, general statement of the description): release of the dye bonded to the carious dentin tissue

mode of binding to carious tissue in infected teeth (conclusion) [2]: bind irreversibly
Compound: Cc1c(CC(=O)NN)c(=O)oc2cc(N)c(S(=O)(=O)O)cc12 [Alexa 350]
colouring of tooth slice after NaCl and NaOH treatment (Day 4) [2]: still contained colourants

The remaining lines, values behind:

Compound: 6-(2-carboxy-5-(hydrazinecarbonyl)phenyl)-1,2,2,10,10,11-hexamethyl-2,10-dihydro-1H-pyrano[3,2-g]diquinoline-11-ium-4,8-diyl)methanesulfonate [Alexa Fluor® 594]
staining after drilling with high-speed dental drill (carious dentin tissue [1]): staining always took place
colouring of tooth slice after NaCl and NaOH treatment (Day 4) [2]: still contained colourants
colouring of tooth slice after NaCl and NaOH treatment (Day 4) ([2]; listed as Alexa Fluor 594 ®): staining
mode of binding to carious tissue in infected teeth (conclusion) [2]: bind irreversibly
detection of carious dentin tissue compared with tactile control by a dentist (carious dentin tissue [3]): better and more sensitive
staining of carious cavity (carious dentin tissue [3]; 15-50 mM aqueous solution, cavity obtained with Carisolv): intense dark bluish colour
staining of surface judged caries free by tactile control (carious dentin tissue [3]; after Carisolv and hand-instrument excavation): very slight staining
staining after second Carisolv treatment and excavation (carious dentin tissue [3]; final staining attempt): no staining took place

Compound: NNC(=O)CSCC(=O)Nc1ccc(-c2c3ccc(=O)cc-3oc3cc(O)ccc23)c(C(=O)O)c1 [5-(2-2-hydrazinyl-2-oxoethylthio)acetamido)-2-(3-hydroxy-6-oxo-6H-xanthen-9-yl)benzoic acid]
colouring of tooth slice after NaCl and NaOH treatment (Day 4) [2]: still contained colourants; also recorded: staining
mode of binding to carious tissue in infected teeth (conclusion) [2]: bind irreversibly

Compound: NNC(=O)NN1C(=O)c2cc(S(=O)(=O)O)cc3c(N)c(S(=O)(=O)O)cc(c23)C1=O [Lucifer Yellow]
staining after drilling the smear layer with round type steel dental drill ([4]; aqueous solution 15-50 mM, 1500 rpm, rinsing with water): resulted in staining
staining of smear layer (conclusion) ([4]; smear layer formed by high-speed dental drill on healthy tooth): stained this smear layer
reaction with healthy dentin tissue (healthy dentin tissue [5]): no reaction takes place
colouring of tooth slice after NaCl and NaOH treatment (Day 4) [2]: still contained colourants
colouring of tooth slice after NaCl and NaOH treatment (Day 4) ([2]; listed as Lucifer Yellow sodium salt): staining
mode of binding to carious tissue in infected teeth (conclusion) [2]: bind irreversibly
reaction with healthy dentin (healthy dentin tissue [6]): did not react with healthy dentin
selectivity carious versus healthy dentin tissue (carious dentin tissue [7]; TOF-SIMS conclusion): selectively reacts with carious dentin tissue
bonding to carious dentin tissue (carious dentin tissue [7]; TOF-SIMS positive spectra, 1.8 mM, 1 hour exposure, NaOH wash): covalently bonded
selectivity carious versus healthy dentin tissue (carious dentin tissue [8]; FTIR conclusion): selectively reacts with carious dentin tissue
reaction with carious dentin tissue (carious dentin tissue [8]; FTIR, peak at 1740 cm-1 no longer present, FIG. 3d): reaction has taken place
